The subject of one experiment is P. aeruginosa DR4877/07. Kind of experiment: microbe, parasite or virus in culture. Conditions: for MIC: Pseudomonas aeruginosa, DR4877/07, 24 h, read-out: MIC of antibiotics. As to the method: MIC of each peptide was determined using the microdilution method in a 96 well microtitre plates (SPL Life Sciences Co., Ltd, Korea). Two-fold serial dilutions of each peptide in Mueller-Hinton Broth (MHB) was prepared from a 1 mg/ml stock solution of the peptide in the same broth, to obtain a final concentration in the range of 0.0976–50 μg/ml in each well. Bacterial suspensions (P. aeruginosa ATCC 27853, P. aeruginosa 4877, P. aeruginosa 23155, K. pneumoniae ATCC 10031 and K. pneumoniae 4299) were prepared by suspending the overnight cultured bacteria in saline and adjusting the inoculum to ~10^8 colony forming units (CFU) per ml. A further 150-fold dilution was then prepared in MHB to achieve a final cell density of 10^5–10^6 CFU/ml. In each well, 100 μl of inoculum was mixed with the equal volume of peptides at their 2× concentration. Positive and negative controls contained 200 μl of inoculum (without any peptide) and broth alone (no peptide/inoculum) respectively. Another negative control in which MHB containing 200 μl of peptide alone in its highest concentration tested (50 μg/ml) was also included to ensure that the optical density measured in the test wells was not due to turbidity of the peptides in solution. The 96 well polystyrene plates were then incubated at 37 °C for 24 h and the optical density at 600 nm (OD600) was measured every 30 min continuously using a TECAN microplate reader (TECAN Infinite 200, Austria).

Experiment [1] concerns P. aeruginosa ATCC 27853. Description: microbe, parasite or virus in culture. It is filed as cell-based. The method in brief: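 Peptides two-fold diluted in Mueller-Hinton Broth (0.0976–50 μg/ml final) against 10^5–10^6 CFU/ml inoculum, 37 °C for 24 h with OD600 monitored every 30 min. MIC = lowest concentration with no visible growth; two independent duplicates.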
In experiment [2] the test system is P. aeruginosa ATCC 27853. It is filed as cell-based. Conditions: for Fractional inhibitory concentration of peptide/PMB, combination with Genta: first number in parenthesis; for Fractional inhibitory concentration of peptide/PMB, combination with Genta / Fractional inhibitory concentration of antibiotic, Genta combination: ATCC 27853; for Fractional inhibitory concentration of antibiotic, Genta combination: second number in parenthesis. The method in brief:
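Checkerboard combinations of peptide and antibiotic, each 2-fold diluted up to 1× MIC in MHB, were tested against ~10^6 CFU/ml final inoculum. Plates were incubated 24 h at 37 °C, with growth read at OD600. FICI was the sum of the combination-to-alone MIC ratios for each agent, and the lowest FICI from duplicate experiments was reported.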

For another experiment, the system named is K. pneumoniae 07955. Kind of experiment: microbe, parasite or virus in culture. It is filed as cell-based. Conditions: for MIC: Klebsiella pneumoniae, 07955, individual peptide/antibiotics, read-out: MIC against K. pneumoniae 07955.
The subject of the next experiment is P. aeruginosa ATCC 9027. Description: Mice model of infectious keratitis. Type of experiment: in vivo, C57BL6 mice. The settings on record: for Corneal bacterial burden: 0.15% gatifloxacin or 0.05% B2088 alone. As to the method: The marked synergism between B2088 and gatifloxacin in the mammalian cell culture model prompted us to investigate the efficacy of the combinations in vivo. A mouse model of keratitis was used to examine the efficacy of peptide-antibiotics combinations. After infection of the cornea with P. aeruginosa ATCC 9027 strains, mice were treated with gatifloxacin (0.15% w/v) or B2088 (0.05%) alone as well as gatifloxacin (0.15%) in combination with B2088 (0.05% w/v). […] (Fig. 7c,d and Supplementary Fig. S3).
Wild type C57BL6 (6–8 weeks old and weighs about 20-30 gram) female mice purchased from National University of Singapore were used for this study. P. aeruginosa ATCC 9027 was grown overnight in TSA (Tryptic Soy Agar) at 37 °C. Concentration of 3 × 10^8 bacterial stock was prepared for mice corneal infection with United States Phosphate Buffer (USP) by resuspending few colonies from the overnight cultured TSA plates.
Healthy mice with good corneal clarity were chosen for this study through careful monitoring with slit-lamp biomicroscopy. A total of 60 mice were used for this study (n = 12 for 5 groups) at different time points (day1, day2, day3 post treatment). The animals were anesthetized subcutaneously by 0.2 ml of ketamine (100 mg/ml) and 0.1 ml of xylazil (20 mg/ml) in 0.7 ml of normal saline (0.08 ml/mice). […] Topical application of bacteria suspension (10 μl) was applied to the scratched cornea. All the animals had been treated with the antibiotics or peptide/antibiotics combinations (3 times/day) started from day1 post infection.
At post treatment day1, day 2 and day 3, four animals from each group were euthanized. The infected corneas was dissected and processed for colony counting. Single individual cornea from different groups was homogenized in sterile 0.9% NaCl containing 0.25% BSA and diluted serially (10^1 to 10^2 fold dilution), plated in duplicates on TSA plates and incubated for 48 h at 37 °C. The number of viable bacteria was enumerated as before.

[3] abbreviates: MHB, 10^5–10^6 CFU/ml, 37 °C, 24 h, two independent duplicates.

Values after ≈ are worked out from the molar mass of the structure shown. Positions of bridges follow the written chain, without caps; N, C: chain ends. Non-standard residues stand in square brackets, D forms with d. Residues, ends and D or L forms follow the SMILES beside them. Chains are numbered I, II in the order given. *: point of attachment. X1 = CC[C@H](C)CCCCC(=O)*; Dab = NCC[C@H](N)C(=O)O

Consider `CC[C@H](C)CCCCC(=O)N[C@@H](CCN)C(=O)N[C@H](C(=O)N[C@@H](CCN)C(=O)N[C@H]1CCNC(=O)[C@H]([C@@H](C)O)NC(=O)[C@H](CCN)NC(=O)[C@H](CCN)NC(=O)[C@H](CC(C)C)NC(=O)[C@@H](Cc2ccccc2)NC(=O)[C@H](CCN)NC1=O)[C@@H](C)O` [Polymyxin B, polymyxin B, reference compound] (X1-[Dab]T[Dab][Dab][Dab][dF]L[Dab][Dab]T; lactam 4-C (inferred); N-terminus assumed), for which, in the experiment with P. aeruginosa DR4877/07 (setting [3]), the “Minimum Inhibitory Concentration against P. aeruginosa DR4877/07” value turned out to be 1.13 µM. For the same molecule, the MIC of Polymyxin B against this strain in the experiment on P. aeruginosa DR4877/07 (alone) turned out to be 1.56 µg/mL. Besides, the “Minimum Inhibitory Concentration against P. aeruginosa ATCC 27853” value with P. aeruginosa ATCC 27853 [1] (setting [3]) was determined as 0.57 µM. Moreover, in the experiment on P. aeruginosa ATCC 27853 [2], the “Fractional inhibitory concentration of peptide/PMB, combination with Genta” value is “(0.5,0.5)” and the “Fractional inhibitory concentration of antibiotic, Genta combination” value is reported as “(0.5,0.5)”. The “Fractional Inhibitory Concentration Index with Genta” value in the experiment on P. aeruginosa ATCC 27853 [2] (peptide + gentamicin, P. aeruginosa ATCC 27853) amounted to 1.0.
Consider `CC(C)[C@H](NC(=O)[C@H](CCCCN)NC(=O)[C@H](CCCNC(=N)N)NC(=O)CNC(=O)[C@@H](N)CCCNC(=N)N)C(=O)N[C@H](C(=O)N[C@@H](CCCNC(=N)N)C(=O)N[C@@H](CCCNC(=N)N)C(=O)NCCCC[C@H](NC(=O)[C@H](CCCNC(=N)N)NC(=O)[C@H](CCCNC(=N)N)NC(=O)[C@@H](NC(=O)[C@@H](NC(=O)[C@H](CCCCN)NC(=O)[C@H](CCCNC(=N)N)NC(=O)CNC(=O)[C@@H](N)CCCNC(=N)N)C(C)C)C(C)C)C(=O)N[C@@H](CCCCN)C(=O)O)C(C)C` [B2088] (I: H-RGRKVVRRKK-OH / II: H-RGRKVVRR; amide I:9-II:C; N-terminus and C-terminus assumed), for which the “Minimum Inhibitory Concentration against P. aeruginosa ATCC 27853” value with P. aeruginosa ATCC 27853 [1] (ATCC 27853, 24 h) turned out to be 2.7 µM. In addition, the “MIC against K. pneumoniae 07955” value with K. pneumoniae 07955 (07955, 24 h) was 6.25 µg/mL (≈ 2.73 µM). In addition, in the experiment with P. aeruginosa ATCC 27853 [2], the “Fractional inhibitory concentration of peptide/PMB, combination with Genta” value is “(0.25,0.25)” and the “Fractional inhibitory concentration of antibiotic, Genta combination” value was “(0.25,0.25)”. In addition, the “Reduction of antibiotic use in the presence of B2088” value in the experiment on P. aeruginosa ATCC 9027 (0.05% B2088 with gatifloxacin) is reported as “about 50%”. The Corneal bacterial burden entry in the experiment with P. aeruginosa ATCC 9027 is recorded as “increased bacterial burden”.
As for `COc1c(N2CCNC(C)C2)c(F)cc2c(=O)c(C(=O)O)cn(C3CC3)c12` (stereo not drawn) [Gatifloxacin], the MIC worked out at 31.2 µg/mL with P. aeruginosa DR4877/07 and 1.56 µg/mL (≈ 4.16 µM) in the experiment with K. pneumoniae 07955. The Corneal bacterial burden result with P. aeruginosa ATCC 9027 is on record as “increased bacterial burden”. Also, the “Corneal clarity and bacterial load” value in the experiment on P. aeruginosa ATCC 9027 (topical 0.3% gatifloxacin, 3 times/day, vs PBS-treated mice) was “clear cornea and less bacterial load”.
As for `NC[C@H]1O[C@H](O[C@H]2[C@H](O)[C@@H](O[C@H]3O[C@H](CO)[C@@H](O)[C@H](N)[C@H]3O)[C@H](N)C[C@@H]2N)[C@H](N)C[C@@H]1O` [Tobramycin], the results for the MIC with P. aeruginosa DR4877/07 and with K. pneumoniae 07955 were 800 µg/mL and 25 µg/mL (≈ 53.5 µM), respectively.

For the origin of these results see paper PMC4865820, “Branched Peptide, B2088, Disrupts the Supramolecular Organization of Lipopolysaccharides and Sensitizes the Gram-negative Bacteria” (Scientific Reports, 2016).
